{"source": "paper PMC12775434", "about": "“Ultra-large virtual screening unveils potent agonists of the neuromodulatory orphan receptor GPR139” (Nature Communications, 2025)", "assay_type_in_all_cases": "cell-based", "key": {"GPR139 [1]": {"molecular_target": "T1, GPR139 (Homo sapiens, UniProt Q6DWJ6)", "T1 sequence (Q6DWJ6 1-353)": "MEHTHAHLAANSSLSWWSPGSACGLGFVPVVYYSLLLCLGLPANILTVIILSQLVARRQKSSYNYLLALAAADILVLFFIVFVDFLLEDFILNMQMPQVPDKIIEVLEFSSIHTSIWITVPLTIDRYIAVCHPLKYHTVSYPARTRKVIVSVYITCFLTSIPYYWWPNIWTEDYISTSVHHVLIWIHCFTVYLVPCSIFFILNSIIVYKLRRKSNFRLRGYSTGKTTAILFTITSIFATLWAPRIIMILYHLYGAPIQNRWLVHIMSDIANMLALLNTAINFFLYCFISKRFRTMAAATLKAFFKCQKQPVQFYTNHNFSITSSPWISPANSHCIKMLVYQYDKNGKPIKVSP", "assay": "Ca2+ mobilization assay, agonist mode, stable GPR139-CHOk1 cell line", "outline": "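Agonist activity of compounds is assessed in stably transfected CHO-K1 cells using the calcium dye Fluo-4 at 37 °C in HEPES-buffered HBSS (pH 7.4). Efficacy is expressed relative to the reference agonist Lundbeck Cmp 1a, set as 100%.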"}, "[2]": {"molecular_target": "T2, human muscarinic acetylcholine M1 receptor (M1R) (Homo sapiens, UniProt P11229)", "T2 sequence (P11229 1-460)": "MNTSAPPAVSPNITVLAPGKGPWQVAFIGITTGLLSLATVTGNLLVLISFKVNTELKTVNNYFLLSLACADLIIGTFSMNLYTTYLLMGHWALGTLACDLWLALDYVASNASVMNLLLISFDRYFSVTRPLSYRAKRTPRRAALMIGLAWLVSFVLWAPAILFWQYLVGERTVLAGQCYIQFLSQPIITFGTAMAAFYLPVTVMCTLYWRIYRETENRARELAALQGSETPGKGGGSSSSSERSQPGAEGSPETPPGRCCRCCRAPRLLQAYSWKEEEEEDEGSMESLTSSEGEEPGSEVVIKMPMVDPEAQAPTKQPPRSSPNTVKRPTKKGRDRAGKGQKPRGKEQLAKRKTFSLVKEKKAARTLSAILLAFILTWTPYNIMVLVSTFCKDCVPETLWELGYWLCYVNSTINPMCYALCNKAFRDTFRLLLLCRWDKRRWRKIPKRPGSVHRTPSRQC", "assay": "Ca2+ mobilization counter-screen in M1R-CHOk1 cells", "outline": "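Stable M1R-CHOk1 line; Fluo-4 AM 2 µM, 1 h, 37 °C; HEPES-buffered HBSS pH 7.4 + 1 mM MgCl2/CaCl2 + 2.5 mM probenecid; 10 min equilibration; compound injected post-baseline; ex 485/em 525, 37 °C; DMSO ≤0.3%.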"}, "GPR139 [3]": {"molecular_target": "T1, GPR139", "assay": "Ca2+ mobilization assay, antagonist mode (EC80 800 nM Lundbeck Cmp 1a after 20 min preincubation), GPR139-CHOk1", "outline": "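Fluo-4-loaded GPR139-CHOk1 cells in HEPES-buffered HBSS (pH 7.4, 2.5 mM probenecid) given test compounds at 10 µM, then after 20 min challenged with 800 nM Lundbeck Cmp 1a (EC80). Calcium fluorescence read at 37 °C, 485/525 nm.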"}, "[4]": {"conditions": "0.1 µM, individual replicates (Supplementary Figure 3)"}, "[5]": {"conditions": "1 µM, individual replicates (Supplementary Figure 3)"}, "[6]": {"conditions": "10 µM, individual replicates (Supplementary Figure 3)"}, "[7]": {"conditions": "Agonist mode, individual replicates (Supplementary Figure 1)"}, "[8]": {"conditions": "individual replicates (Supplementary Figure 2)"}, "[9]": {"conditions": "individual replicates (Supplementary Figure 1)"}, "[10]": {"conditions": "primary screen, 10 µM compound, agonist mode, three columns = independent experiments"}}, "note": "Where “and” joins values, the source holds several entries; their conditions need not be identical. Equal entries are not always repeated."}
{"smiles": "CCOc1ccc(C(=O)OCC(=O)N[C@H](C)c2ccccc2)cc1", "note": "[Compound 14, CCOC=1C=CC(=CC1)C(=O)OCC(=O)N[C@H](C)C=2C=CC=CC2]", "values": [{"measurement": "Ca2+ signal (% of Cmp 1a)", "setting": "GPR139 [1]; [4]", "value": "1.0 % of Cmp 1a and -0.9 % of Cmp 1a"}, {"measurement": "Ca2+ signal (% of Cmp 1a)", "setting": "GPR139 [1]; [5]", "value": "-7.4 % of Cmp 1a and 2.7 % of Cmp 1a"}, {"measurement": "Ca2+ signal (% of Cmp 1a)", "setting": "GPR139 [1]; [6]", "value": "15.1 % of Cmp 1a and 12.7 % of Cmp 1a"}, {"measurement": "Ca2+ signal (% of Cmp 1a)", "setting": "GPR139 [1]; [7]", "value": "37 % of Cmp 1a and 14 % of Cmp 1a and 31 % of Cmp 1a"}, {"measurement": "Ca2+ signal (% of Carbachol)", "setting": "[2]; [8]", "value": "-14 % of Carbachol and 13 % of Carbachol"}, {"measurement": "Ca2+ signal (% of Cmp 1a)", "setting": "GPR139 [3]; [9]", "value": "75.8591 % of Cmp 1a and 82.1128 % of Cmp 1a and 79.0278 % of Cmp 1a"}]}
{"smiles": "COc1ccc(-c2nc(CC(=O)NC(C)c3ccccc3)no2)cn1", "note": "(stereo not drawn) [Compound 1.26, COC1=NC=C(C2=NC(CC(NC(C3=CC=CC=C3)C)=O)=NO2)C=C1]", "values": [{"measurement": "Ca2+ signal (% of Cmp 1a)", "setting": "GPR139 [1]; Agonist mode, individual replicates (Supplementary Figure 4)", "value": "85 % of Cmp 1a and 87 % of Cmp 1a and 69 % of Cmp 1a"}, {"measurement": "EC50", "setting": "GPR139 [1]; Supplementary Table 2, mean ± SEM, read-out: pEC50 Ca2+ (converted)", "value": 2000, "unit": "nM"}, {"measurement": "Emax", "setting": "GPR139 [1]; Supplementary Table 2, normalized to Lundbeck Cmp 1a, mean ± SEM, read-out: Emax (%) Ca2+", "value": "94 ± 9", "unit": "%"}, {"measurement": "Ca2+ signal (% of Cmp 1a)", "setting": "GPR139 [1]; log [Compound] M = -4.5, individual replicate columns", "value": "87 % of Cmp 1a and 80 % of Cmp 1a and 98 % of Cmp 1a"}, {"measurement": "Ca2+ signal (% of Cmp 1a)", "setting": "GPR139 [1]; log [Compound] M = -5.0, individual replicate columns", "value": "81 % of Cmp 1a and 61 % of Cmp 1a and 119 % of Cmp 1a"}, {"measurement": "Ca2+ signal (% of Cmp 1a)", "setting": "GPR139 [1]; log [Compound] M = -5.5, individual replicate columns", "value": "56 % of Cmp 1a and 44 % of Cmp 1a and 97 % of Cmp 1a"}, {"measurement": "Ca2+ signal (% of Cmp 1a)", "setting": "GPR139 [1]; log [Compound] M = -6.0, individual replicate columns", "value": "34 % of Cmp 1a and 6.33 % of Cmp 1a and 46 % of Cmp 1a"}, {"measurement": "Ca2+ signal (% of Cmp 1a)", "setting": "GPR139 [1]; log [Compound] M = -6.5, individual replicate columns", "value": "12 % of Cmp 1a and -9 % of Cmp 1a and 7 % of Cmp 1a"}, {"measurement": "Ca2+ signal (% of Cmp 1a)", "setting": "GPR139 [1]; log [Compound] M = -7.0, individual replicate columns", "value": "8 % of Cmp 1a and 3 % of Cmp 1a and 10 % of Cmp 1a"}, {"measurement": "Ca2+ signal (% of Cmp 1a)", "setting": "GPR139 [1]; log [Compound] M = -7.5, individual replicate columns", "value": "2.67 % of Cmp 1a and 0 % of Cmp 1a and -4.67 % of Cmp 1a"}, {"measurement": "Ca2+ signal (% of Cmp 1a)", "setting": "GPR139 [1]; log [Compound] M = -8.0, individual replicate columns", "value": "-9 % of Cmp 1a (2×) and 6.33 % of Cmp 1a"}, {"measurement": "Ca2+ signal (% of Cmp 1a)", "setting": "GPR139 [1]; log [Compound] M = -8.5, individual replicate columns", "value": "1 % of Cmp 1a and -7 % of Cmp 1a and 3.33 % of Cmp 1a"}, {"measurement": "Ca2+ signal (% of Cmp 1a)", "setting": "GPR139 [1]; log [Compound] M = -9.0, individual replicate columns", "value": "-3.33 % of Cmp 1a and -8 % of Cmp 1a and 15 % of Cmp 1a"}, {"measurement": "Ca2+ signal (% of Carbachol)", "setting": "[2]; individual replicates (Supplementary Figure 5)", "value": "-15 % of Carbachol and -8 % of Carbachol and 11 % of Carbachol"}, {"measurement": "Ca2+ signal (% of Cmp 1a)", "setting": "GPR139 [3]; individual replicates (Supplementary Figure 4)", "value": "29 % of Cmp 1a and 2 % of Cmp 1a and 52 % of Cmp 1a"}]}
{"smiles": "O=C(NC1CC12CCCC2)C1CCCN(c2ccccc2)C1=O", "note": "(stereo not drawn) [Compound 13, O=C(NC1CC21CCCC2)C3CCCN(C3=O)C=4C=CC=CC4]", "values": [{"measurement": "Ca2+ signal (% of Cmp 1a)", "setting": "GPR139 [1]; [4]", "value": "-0.35 % of Cmp 1a and -3.4 % of Cmp 1a"}, {"measurement": "Ca2+ signal (% of Cmp 1a)", "setting": "GPR139 [1]; [5]", "value": "5.0 % of Cmp 1a and -6.6 % of Cmp 1a"}, {"measurement": "Ca2+ signal (% of Cmp 1a)", "setting": "GPR139 [1]; [6]", "value": "18.4 % of Cmp 1a and -6.0 % of Cmp 1a"}, {"measurement": "Ca2+ signal (% of Cmp 1a)", "setting": "GPR139 [1]; [7]", "value": "47 % of Cmp 1a and 33 % of Cmp 1a and 40 % of Cmp 1a"}, {"measurement": "Ca2+ signal (% of Cmp 1a)", "setting": "GPR139 [1]; [10]", "value": "47 % of Cmp 1a and 33 % of Cmp 1a and 40 % of Cmp 1a"}, {"measurement": "Ca2+ signal (% of Carbachol)", "setting": "[2]; [8]", "value": "-12 % of Carbachol and -1.24 % of Carbachol"}, {"measurement": "Ca2+ signal (% of Cmp 1a)", "setting": "GPR139 [3]; [9]", "value": "67.15 % of Cmp 1a and 66.5231 % of Cmp 1a and 65.9874 % of Cmp 1a"}]}
{"smiles": "O=C(NCc1ccc(Cl)o1)N1CCCc2ccccc2C1", "note": "[Compound 7, ClC1=CC=C(CNC(=O)N2CCCC=3C=CC=CC3C2)O1]", "values": [{"measurement": "Ca2+ signal (% of Cmp 1a)", "setting": "GPR139 [1]; [4]", "value": "16.2 % of Cmp 1a and 6.0 % of Cmp 1a"}, {"measurement": "Ca2+ signal (% of Cmp 1a)", "setting": "GPR139 [1]; [5]", "value": "2.4 % of Cmp 1a and 4.1 % of Cmp 1a"}, {"measurement": "Ca2+ signal (% of Cmp 1a)", "setting": "GPR139 [1]; [6]", "value": "22.7 % of Cmp 1a and 24.5 % of Cmp 1a"}, {"measurement": "activation of GPR139 at three concentrations", "setting": "GPR139 [1]; 0.1, 1 and 10 µM, activity too low to reliably determine EC50", "value": "concentration-dependent activation of GPR139"}, {"measurement": "Ca2+ signal (% of Cmp 1a)", "setting": "GPR139 [1]; [7]", "value": "44 % of Cmp 1a and 39 % of Cmp 1a and 33 % of Cmp 1a"}, {"measurement": "Ca2+ signal (% of Cmp 1a)", "setting": "GPR139 [1]; [10]", "value": "44 % of Cmp 1a and 39 % of Cmp 1a and 33 % of Cmp 1a"}, {"measurement": "Ca2+ signal (% of Carbachol)", "setting": "[2]; [8]", "value": "-10 % of Carbachol and -18 % of Carbachol"}, {"measurement": "Ca2+ signal (% of Cmp 1a)", "setting": "GPR139 [3]; [9]", "value": "37.7665 % of Cmp 1a and 52.8581 % of Cmp 1a and 40.8806 % of Cmp 1a"}]}
